Experimental data taken from BindingDB's records for doi:10.1021/jm00039a024 (Eisai, 1994).

These compounds were tested against cGMP-specific 3',5'-cyclic phosphodiesterase, PDE5 (Sus scrofa) (assay: Inhibitory activity against cGMP-phosphodiesterase from porcine aorta).

Q: Which IC50 does the source give for `COc1cc2ncnc(NCc3ccc4c(c3)OCO4)c2cc1SC` [Benzo[1,3]dioxol-5-ylmethyl-(7-methoxy-6-methylsulfanyl-quinazolin-4-yl)-amine] here?
A: Its IC50 is 350 nM.

Q: Which IC50 does the source give for `CS(=O)(=O)c1ccc2ncnc(NCc3ccc4c(c3)OCO4)c2c1` [Benzo[1,3]dioxol-5-ylmethyl-(6-methanesulfonyl-quinazolin-4-yl)-amine] here?
A: Its IC50 is 810 nM.

Q: For `CCOc1ccc2ncnc(NCc3ccc4c(c3)OCO4)c2c1` [Benzo[1,3]dioxol-5-ylmethyl-(6-ethoxy-quinazolin-4-yl)-amine], which IC50 is on record?
A: The IC50 was 380 nM.

Q: For `NC(=O)c1ccc2ncnc(NCc3ccc4c(c3)OCO4)c2c1` [4-[(Benzo[1,3]dioxol-5-ylmethyl)-amino]-quinazoline-6-carboxylic acid amide], which IC50 is on record?
A: The IC50 was 770 nM.

Q: Which IC50 does the source give for `COc1ccc2ncnc(NCc3ccc4c(c3)OCO4)c2c1` [Benzo[1,3]dioxol-5-ylmethyl-(6-methoxy-quinazolin-4-yl)-amine] here?
A: Its IC50 is 230 nM.

Q: With `CCOC(=O)c1ccc2ncnc(NCc3ccc4c(c3)OCO4)c2c1` [4-[(Benzo[1,3]dioxol-5-ylmethyl)-amino]-quinazoline-6-carboxylic acid ethyl ester] as the compound, how does the IC50 read?
A: The IC50 was 620 nM.

Q: Which IC50 does the source give for `CN(C)C(=O)c1ccc2ncnc(NCc3ccc4c(c3)OCO4)c2c1` [4-[(Benzo[1,3]dioxol-5-ylmethyl)-amino]-quinazoline-6-carboxylic acid dimethylamide] here?
A: Its IC50 is 2300 nM.

Q: Which IC50 does the source give for `COc1cc(OC)c2ncnc(NCc3ccc4c(c3)OCO4)c2c1` [Benzo[1,3]dioxol-5-ylmethyl-(6,8-dimethoxy-quinazolin-4-yl)-amine] here?
A: Its IC50 is 810 nM.

Q: How did the IC50 turn out when `Cc1ccc2ncnc(NCc3ccc4c(c3)OCO4)c2c1` [Benzo[1,3]dioxol-5-ylmethyl-(6-methyl-quinazolin-4-yl)-amine] was run?
A: The IC50 was 100 nM.

Q: With `OCc1ccc2ncnc(NCc3ccc4c(c3)OCO4)c2c1` [{4-[(Benzo[1,3]dioxol-5-ylmethyl)-amino]-quinazolin-6-yl}-methanol] as the compound, how does the IC50 read?
A: The IC50 was 930 nM.

Q: How did the IC50 turn out when `CSc1ccc2ncn(Cc3ccc4c(c3)OCO4)c(=O)c2c1` [3-Benzo[1,3]dioxol-5-ylmethyl-6-methylsulfanyl-3H-quinazolin-4-one] was run?
A: Its IC50 is 2300 nM.

Q: `O=C(c1ccc2ncnc(NCc3ccc4c(c3)OCO4)c2c1)N1CCOCC1` [{4-[(Benzo[1,3]dioxol-5-ylmethyl)-amino]-quinazolin-6-yl}-morpholin-4-yl-methanone] was tested. Which IC50 did it give?
A: Its IC50 is 2700 nM.

Q: For `COc1ccc2ncnc(NCc3ccc4c(c3)OCO4)c2c1OC` [Benzo[1,3]dioxol-5-ylmethyl-(5,6-dimethoxy-quinazolin-4-yl)-amine], which IC50 is on record?
A: Its IC50 is 730 nM.

Q: `O=c1c2ccc(Cl)cc2ncn1Cc1ccc2c(c1)OCO2` [3-Benzo[1,3]dioxol-5-ylmethyl-7-chloro-3H-quinazolin-4-one] was tested. Which IC50 did it give?
A: The IC50 was 8700 nM.
